pIC50: −log10 of the molar value. Where two headings read alike, the source gives them in different places.

The record followed here is patent publication US20210283249A1, “COMBINATION THERAPY FOR CANCER WITH EXON 14 SKIPPING MUTATION(S) OR EXON 14 SKIPPING PHENOTYPE” (Eli Lilly and Company, priority 2016, published 2021).

Experiment [1] deals with Hs746t-derived xenograft of human gastric carcinoma. The experiment in a line: Hs746t xenograft model, Example 2 (sequential and concurrent administration). Format: in vivo, mice. How it is done:
(§1) Female athymic nude mice (Envigo) are used for this study. Food and water are available ad libitum. Animals are acclimated for 1 week prior to any experimental manipulation. The study is performed in accordance with AAALAC accredited institutional guidelines.
Merestinib is formulated as a solution in 10% PEG 400/90% (20% Captisol in water). Emibetuzumab and IgG control are diluted in PBS. Solutions are freshly prepared every 7 days.
Obtain, maintain, expand, harvest, and wash Hs746t cell as in Example 1. Implant cells into 36 female nu/nu mice at a concentration of 2×10^6 cells in 0.2 ml HBSS subcutaneously into the hind flank of the animal. […] After the 28-day dosing period, animals in the single agent arms are sacrificed. Tumors in the animals in the combination treatment groups are monitored for continued growth or regrowth of tumors.
In these studies, animals are sacrificed using CO2 and cervical dislocation when tumors grow larger than 2000 mm^3, or at the end of study.
Measure tumor volumes and body weight at least twice weeky. Body weight measurement during the course of the study, is a general indicator of tolerability.
(§2) Measure tumor growth with calipers and record body weights twice weekly. Calculate tumor volumes by the formula Volume (mm^3)=L×W^2 (π/6) where L represents the larger diameter and W the smaller diameter. Calculate T/C % using the formula T/C %=100×ΔT/ΔC. Where ΔT=mean tumor volume of the drug-treated group on the final day of the study−mean tumor volume of the drug-treated group on the initial day of the dosing and ΔC=mean tumor volume of the control group on the final day of the study−mean tumor volume of the control group on the initial day of the dosing. Calculate changes in body weight by the formula (Weight on observation day−Weight on day 12)/Weight on Day 12×100. Calculate test for significant differences between treatment groups by RM ANOVA using the JMP (v.9.0.3) statistical package (SAS Institute Inc., Cary, N.C., USA).
Transform tumor volume to the log scale to equalize variance across time and treatment groups. Analyze the log volume data with a two-way repeated measures analysis of variance by time and treatment using the MIXED procedures in SAS software (Version 9.3). The correlation model for the repeated measures is spatial power. Compare treated groups to the control group at each time point. The MIXED procedure is also used separately for each treatment group to calculate adjusted means and standard errors at each time point. Both analyses account for the autocorrelation within each animal and the loss of data that occurs when animals are removed or lost before the end of the study. The adjusted means and standard errors are plotted for each treatment group versus time. […]

For the next experiment, the system named is pMET. As to the kind of experiment: pMET in Hs746t cells. Format: cell-based, human.
Experiment [2] deals with Hs746t-derived xenograft of human gastric carcinoma. The experiment in a line: Hs746t xenograft model, Example 1 (combination vs monotherapy). Format: in vivo, mice. As for the experimental part: (§3) Hs746t is a gastric cancer cell line known to have MET exon 14 skipping mutation(s) and MET amplification (Asaoka et al., Biochem Biophys Res Commun 394:1042-1046).
as §1
Merestinib is formulated as a solution in 10% PEG 400/90% (20% Captisol in water). Emibetuzumab is diluted in phosphate buffered saline (PBS). Solutions are freshly prepared every 7 days.
Obtain Hs746t cells from ATCC (American Type Culture Collection) and maintain in RPMI 1640 with 10% fetal bovine serum at 37° C. in 5% CO2. Expand cells in culture, harvest, and wash in Hank's Balanced Salt Solution (HBSS, GIBC®). Implant sub-confluent […] cells into 60 female nu/nu mice at a concentration of 1×10^7 cells in 0.2 ml HBSS subcutaneously into the hind flank of the animal.
Administer merestinib by oral gavage at either 6 mg/kg or 12 mg/kg in a dose volume of 0.2 mL in 10% polyethylene glycol 400/90% of a mixture of 20% Captisol in water, and antibody treatments by intraperitoneal injection (IP) starting on day 12 after tumor cell implantation when average tumor volume of 350 mm^3 and ending on Day 33. Inject animals IP in a dosing volume of 10 mg/kg. After 14 days of dosing (Study Day 27), the animals in the control group are sacrificed because of tumor volumes exceeding >2000 mm^3. After the 28-day dosing period, animals in the single agent arms are sacrificed. […]
In both studies, animals are sacrificed using CO2 and cervical dislocation when tumors grow larger than 2000 mm^3, or at the end of study.
Record tumor growth and body weight changes at least twice a week. Body weight measurement during the course of the study, is a general indicator of tolerability.
as §2, with “RMANOVA” for “RM ANOVA”
The p-value from the 2×2 interaction test on day 28 is not significant at p=0.654. All pairwise comparisons between the combination group and each single agent group on day 33 are also statistically significant. […] Full statistical analysis is not feasible as the animals in the vehicle control groups were removed after 14 days of dosing as the animals are sacrificed due to tumor burden.

A further experiment has as its system Hs746t cells. The experiment in a line: Hs746t cell proliferation. Format: cell-based, human.
Excerpt: as §3

Broadly, the T/C is the ratio of treated to control. Broadly, the pIC50 is the IC50 on a negative log10 scale, so that one unit is a factor of ten. A high value points to a low IC50. As for `Cc1ccc(C(=O)Nc2ccc(Oc3cc4cnn(C)c4cc3-c3cn[nH]c3)c(F)c2)c(=O)n1-c1ccc(F)cc1` [merestinib, N-(3-Fluoro-4-(1-methyl-6-(1H-pyrazol-4-yl)-1H-indazol-5-yloxy)phenyl)-1-(4-fluorophenyl)-6-methyl-2-oxo-1,2-dihydropyridine-3-carboxamide], in experiment [1] (merestinib 6 mg/kg qd single agent, by Day 37), the “tumor volume on re-growth while on treatment” value is recorded as “about 500 mm^3”. The maximal tumor regression in experiment [1] (merestinib 6 mg/kg qd, Day 27 (7 days of dosing)) was 30.2%. In addition, the “effect on pMET” value in the experiment on pMET (at 65-100 nM) is recorded as “totally eliminates”. Further, the tumor response course result in experiment [2] (merestinib 6 mg/kg qd orally) is on record as “transient tumor regression followed by re-growth while on treatment”. In addition, in experiment [2] (merestinib 6 mg/kg qd orally, after 21 day dosing), the T/C was 18.3%. For the same compound, in experiment [2] (merestinib 12 mg/kg cohort, during the 5 weeks post-treatment), the “mice with no tumor regrowth” value is listed as 6/7. Also, the tumor regression in experiment [2] (merestinib 12 mg/kg qd orally, after 21 day dosing) is reported as 91.8%. This compound also had a pIC50 in the experiment on Hs746t cells (Homo sapiens) of 7.47.
Take “emibetuzumab: C8-H241-IgG4 anti-human MET antibody: two light chains of SEQ ID NO: 5 and two heavy chains of SEQ ID NO: 7”: the maximum tumor regression in experiment [1] (emibetuzumab 10 mg/kg qw, Day 27) turned out to be 16.0%; in experiment [1] (emibetuzumab 20 mg/kg qw, Day 37), 58.9%. The “effect on pMET expression” value with pMET (at 130-650 nM) is recorded as “no effect”. In experiment [2] (emibetuzumab 10 mg/kg IP qw), the tumor response course result is “tumors are observed to regrow while on treatment”. For the same compound, the transient tumor regression in experiment [2] (emibetuzumab 10 mg/kg IP qw, after 3 doses) is on record as 37.7%. The same compound showed a pIC50 with Hs746t cells of less than 7.00.
